Data reported in a melting point compilation (Tetko et al.; mined from patent text by program, amines drawn as free bases though some values may be those of a salt).

| Structure (SMILES) | melting point |
| --- | --- |
| CC(C)(C)OC(=O)N1CCC(c2nc3ccc(-c4ccc(S(C)(=O)=O)cc4F)cc3o2)CC1 | 174 to 178 °C |
| Nc1ccc(CP2(=O)OCCO2)cc1 | 183 to 184 °C |
| CCC[C@H]1CC[C@H]([C@H]2CC[C@H](c3cc(F)c(C[C@H](C)c4ccccc4)c(F)c3)CC2)CC1 | 93.7 °C |
| COc1cc2c(cc1OC)CN(CCCCc1ccc(NC(=O)c3cccc4c(=O)cc(-c5ccccc5)[nH]c34)cc1)CC2 | 204 °C |
| CCOC(=O)c1cnc2nc(N3CCN(C)CC3)ncc2c1Cl | 173 to 175 °C |
| COc1cccc(NC(=O)NC2N=C(c3ccccc3)c3ccccc3N(CCN(C)C)C2=O)c1 (centres undefined) | 213 to 215 °C |
| CC(C)CC(=O)Nc1cc(-c2ccnc3c(C(=O)c4cccs4)cnn23)cs1 | 234 to 235 °C |
| COC(=O)C1CC(=O)N(Cc2ccccc2)C1 (centres undefined) | 63 to 65 °C |
| CCOC(=O)c1c(-c2cccc(Cl)c2)c2cc(C(=O)c3nc(-c4ccccc4)cs3)ccc2[nH]c1=O | 261 °C |
| CC(C(=O)NCc1ccc(C(C)(C)C)cc1)c1ccc(NS(C)(=O)=O)c(F)c1 (centres undefined) | 52 to 54 °C |
| Nc1nc(N)c(-c2ccc(Cl)cc2Cl)c(CBr)n1 | > 270 °C |
| CC(C)Cn1c(=O)n(C)c(=O)c2c(SCCCC#N)n(Cc3cccc4ccccc34)cc21 | 127 to 128 °C |
| CCOc1nc(NC)nc(NC(=O)NS(=O)(=O)c2cccc3c2nnn3C)n1 | 203 to 209 °C |
| c1ccc(OCc2nnn[nH]2)cc1 | 128 to 131 °C |
| O=C(CCc1ccc2ccccc2c1)CC(=O)CCc1ccc2ccccc2c1 | 123 to 125 °C |
| C=COC(=O)n1c(SCc2ccc(C)cn2)nc2cscc21 | 78 to 80 °C |
| O=C(O)c1cc(Cl)ccc1OCc1ccccc1 | 113 to 115 °C |
| CCCCC(Cn1cncn1)(C(N)=O)c1ccc(Cl)cc1Cl (centres undefined) | 170 to 172 °C |
| O=C(O)CCCc1ccc2c(NC(=O)CC3CCCCC3)c(Cl)ccc2n1 | 216 to 220 °C |
| CCCn1c(=O)c2[nH]c(/C=C/c3ccc(Cl)c(Cl)c3)nc2n(CCC)c1=O | 195 to 202 °C |
| Cc1cnc(N2C(=O)C(O)=C(C(=O)c3ccc(C(C)C)cc3)C2c2ccc(OC(F)(F)F)cc2)s1 (centres undefined) | 243 to 244 °C |
| Nc1ccc(C2(OC(=O)Nc3ccccc3)NCCC(c3ccccc3)O2)cc1 (centres undefined) | 110 °C |
| CCCC(=O)Oc1ccc2nc(S(N)(=O)=O)sc2c1 | 122 to 123 °C |
| Cc1nc(N)nc(C)c1Br | 183 to 185 °C |
| Cc1cc(CO)nc(N2CCN(c3ccnc([C@@H](C)O)n3)CC2)n1 | 139 to 140 °C |

| Structure (SMILES) | melting point |
| --- | --- |
| CCCCCC(c1ccccc1C(F)(F)F)C(C(N)=O)c1cc(C(=O)O)ccc1C(C)(C)C (centres undefined) | 199 to 200 °C |
| Cc1cc(-c2ccco2)ccc1-c1cc(C(F)(F)F)nn1-c1ccc(S(C)(=O)=O)cc1 | 175 to 177 °C |
| N#CCc1nc(-c2ccc(Cl)cc2)sc1-c1ccccc1 | 118 to 120 °C |
| Cc1cccc(NC(=O)NC2CC(c3ccccc3F)c3ccccc3N(CC(=O)NC(C)(C)C)C2=O)c1 (centres undefined) | 285 to 300 °C |
| COC(=O)c1ccc(Cc2cn(C)c3ccc(CCNC(=O)N4CCOCC4)cc23)c(OC)c1 | 160 to 161 °C |
| COc1ccc(C)cc1NC(=O)Nc1ccc(N2CCC(C(=O)Nc3ncccc3C)CC2)cc1 | 200 to 203 °C |
| Cc1ccnc(-c2ccoc2)c1OC1SCC(O)C(O)C1O (centres undefined) | 95 °C |
| CC(C)(O)CC(=O)N[C@H]1CC[C@H](CCN2CCC(c3cccc4c3CCO4)CC2)CC1 | 168 °C |
| COc1ccc(CNc2nc(N)n3nc(-c4ccco4)nc3n2)cc1OCc1ccccc1 | 173 to 175 °C |
| Oc1cc(Cl)cc(Br)c1O | 71 to 73 °C |
| COc1cc2c(cc1OC)CC(N(C)CCCN1CCc3cc4c(cc3CC1=O)OCCO4)CC2 (centres undefined) | 152 to 157 °C |
| NC(=O)c1nnc2n1-c1ccc(Cl)cc1C(c1ccccc1)=NC2 | 285 to 289 °C |
| CCCCc1nn(-c2cc(NC(=O)CC)ccc2Cl)c(=O)n1Cc1ccc(-c2ccccc2S(=O)(=O)NC(=O)c2c(F)cccc2Cl)cc1F | 200 to 203 °C |
| O=C1c2ccccc2-n2cnc(Cl)c2[C@@H]2CCCN12 | 233 to 234 °C |
| COc1cnc(C)c(C)c1OC | 36 to 38 °C |
| N#Cc1cc(F)c(-c2ncnc(C(F)F)c2Cl)cc1[N+](=O)[O-] | 100 to 102 °C |
| CCc1c(O)cc(=O)[nH]c1C | 360 °C |
| Cc1nc2ccc(NCCCN3CCC(OC(c4ccccc4)c4ccccc4)CC3)nn2n1 | 119 to 120 °C |
| COC(=O)C1=C(C(=O)OC)c2c(sc3ccccc23)CC1 | 129 °C |
| COc1ccc(OC)c(NC(=O)c2cccc3cc(O)ccc23)c1 | 165 to 166 °C |
| COc1cccc(NC(=O)Nc2ccc(N3CCN(C(=O)Nc4ccc(OCCO)cc4C(F)(F)F)CC3)cc2)c1OC | 135 to 138 °C |
| COc1cc(CC(=O)NCCOc2scc(C)c2C)ccc1OCCN | 85 to 87 °C |
| O=C(O)c1ccc(OCCOc2ccccc2)cc1O | 114 to 116 °C |
| OCc1cc2cc(O)c(Cl)c(Cl)c2s1 | 167 to 169 °C |
| COCc1c(C(=O)c2ccccc2)ncc2[nH]c3ccc(OCc4ccccc4)cc3c12 | 165 °C |

| Structure (SMILES) | melting point |
| --- | --- |
| COc1cc2ncnc(Nc3ccc4[nH]ccc4c3)c2cc1I | 260 to 267 °C |
| COc1ccc(S(=O)(=O)C(CCCCOc2ccccc2)(Cc2cccnc2)C(=O)O)cc1 (centres undefined) | 148 to 151 °C |
| CCCCOCCOc1ccc(-c2ccc3c(c2)C=C(C(=O)Nc2ccc([C@H](O)c4ccccn4)cc2)CCN3S(C)(=O)=O)cc1 | 158 to 160 °C |
| C=CCNc1cc(Cl)nnc1NN | 184 to 186 °C |
| C=COC(=O)NC1Cc2ccc(-c3ccc(=O)[nH]n3)cc2C1 (centres undefined) | 205 to 206 °C |
| COC(=O)c1cc2c(nc1C)C(=O)CCC2 | 180 to 181 °C |
| COc1ccc(-c2cc(-c3c(-c4cccc(C)n4)nc4ccccn34)ccn2)cc1 | 174 °C |
| O=C1NC(=O)c2c1cnc1[nH]ncc21 | 285 to 300 °C |
| COc1nc2cc(C)c(Cl)c(NS(C)(=O)=O)c2nc1OC | 198 °C |
| CNC(=S)SCCC(=O)N1CCC[C@H]1C(=O)OC(C)(C)C | 129 to 130 °C |
| O=C(Nc1nccs1)c1c([C@@H]2CCCN2)nc2c(C(F)(F)F)cccc2c1O | 196 °C |
| O=CC(=Cc1ccccc1F)C(C=O)=Cc1ccccc1F | 141 to 142 °C |
| Cc1ccc2c(c1)N(CC(=O)NC(C)(C)C)C(=O)C(Br)CC2c1ccccc1C (centres undefined) | 219 to 221 °C |
| NC(=O)c1c(F)cc(NC2CCNCC2)cc1F | 166 to 168 °C |
| O=C1c2cccc(Br)c2C(=O)N1c1ccc(OC(F)(F)F)cc1 | 117 to 118 °C |
| O=C(N[C@@H]1C=CC[C@H]1O)OCC(Cl)(Cl)Cl | 82 to 84 °C |
| Nc1nccn2c(C3CCC3)nc(-c3ccc4cccnc4c3)c12 | 94 to 96 °C |
| O=c1oc2cc(O)c(O)cc2c2c1CN(CCN1CCOCC1)CC2 | 299 to 302 °C |
| CCCCOc1cc(C(=O)NCCCN2CCCCC2)cc(S(N)(=O)=O)c1Cc1ccccc1 | 138 °C |
| C=CCN1CCN(C(C#CSc2ccccc2)=Nc2ccc(OC)cc2)CC1 | 75 °C |
| Fc1cccc2cc3cccc(F)c3nc12 | 193 to 195 °C |
| O=C1Nc2cccnc2N(C(=O)NCCN2CCCCC2CN2CCOCC2)c2ccccc21 (centres undefined) | 167 °C |
| N#CCN1C(=O)SC(=Cc2ccc(OCCc3ccccc3)cc2)C1=O | 155 to 157 °C |
| Cc1ccc(CN2CCN(C3=NC4(C=CC(=O)C=C4)C(c4ccccc4)=C3)CC2)cc1 | 135 °C |
| NCc1nc(-c2ncn3c2[C@@H]2CCN2C(=O)c2cc(F)ccc2-3)no1 | 195 to 198 °C |

| Structure (SMILES) | melting point |
| --- | --- |
| O=C1CCN(CC(c2ccccc2)c2ccccc2)CC1 | 140 to 142 °C |
| CCOC(=O)c1ccc(/C=C(\C)c2ccc3c(c2)OCCCC3)cc1 | 71 to 72 °C |
| CC(=O)Oc1ccc(S(=O)(=O)ON=C2CCCc3ccccc32)cc1 | 151 to 152 °C |
| Clc1ncnc(Cl)c1-c1ccc(-c2ccccc2)cc1 | 144 °C |
| CC(=O)n1cc(Cl)c(-c2cccc(Cl)c2Cl)c1 | 97 °C |
| CCOC(=O)C1=C(COCCNCC(=O)OC)NC(C)=C(C(=O)OC)C1c1cccc(Cl)c1Cl (centres undefined) | 96 to 98 °C |
| N#CC1=C2N(Cc3ccc(Cl)nc3)CCN2C2CCC1O2 (centres undefined) | 125 to 127 °C |
| N#Cc1cc(F)ccc1Oc1cccc(C(F)(F)F)c1 | 51 °C |
| CN(C)CCC1CCC2(CC1)Nc1ccc(Cl)cc1S(=O)(=O)N2 (centres undefined) | 234 to 235 °C |
| O=C(Nc1c(C(O)(C(F)(F)F)C(F)(F)F)ccc2ccccc12)c1cc(Cl)cc(Cl)c1 | 205 to 207 °C |
| CS(=O)(=O)Nc1cc2occ(CO)c(=O)c2cc1Oc1ccccc1 | 165 to 166 °C |
| CCOc1cc2ncc(C#N)c(Nc3ccc4c(c3)C(=O)NC4=O)c2cc1OCC | 248 to 251 °C |
| COc1ccc(C(C)(O)c2cccc(OCc3nc(-c4ccccc4)oc3C)c2)c(OCC(=O)O)c1 (centres undefined) | 148 to 149 °C |
| NC(=O)c1c(F)ccc(OCc2nc3ncccc3o2)c1F | 180 to 181 °C |
| COC=C(C#C[Si](C)(C)C)C(=O)OC | 70 to 72 °C |
| Cn1c(CCN2CCN(Cc3ccccc3)CC2)nc2ccc3ccccc3c21 | 144 to 146 °C |
| COC(=O)c1ccccc1S(=O)(=O)NC(=O)Nc1nc(COc2ccccc2)cc(OC)n1 | 178 to 180 °C |
| O=S(=O)(CCCCl)Nc1ccc(OCc2ccc3ccccc3n2)cc1 | 117 °C |
| CCOc1ccc(Nc2ncccc2NS(=O)(=O)c2ccc(OC)cc2)cc1 | 144 to 146 °C |
| CC(C(=O)O)c1ccc2c(c1)Cc1cccnc1O2 (centres undefined) | 183 to 184 °C |
| CCCCCOc1ccc(C=O)cc1OCCCCC | 31 to 32.5 °C |
| Cn1cc(Oc2ccc(Cl)cc2Cl)c(=O)c(-c2cccc(C(F)(F)F)c2)c1 | 129 to 130 °C |
| CC(C#N)Oc1cccc(C=Cc2ccc3ccc(Cl)cc3n2)c1 (centres undefined) | 118 to 120 °C |
| Cc1cc(C(O)C(Cl)(Cl)Cl)n(C)c1 (centres undefined) | 55 to 57 °C |
